Results from patent publication US4229573A, “7α-Methoxycephalosporin derivatives” (Asahi Kasei Kogyo Kabushiki Kaisha, priority 1977, dated 1980).
Values after ≈ are worked out from the molar mass of the structure shown. Where two headings read alike, the source gives them in different places.

How the values were obtained:
Assay in all cases: Minimum inhibitory concentration (MIC) against bacteria
Type in all cases: cell-based
Proteus morganii 0239 = test system: Proteus morganii 0239
From the text: (§1) In an antimicrobial spectrum, a minimum inhibitory concentration (MIC) against a bacterium is expressed in terms of μg/ml.

Escherichia coli, 0205 = test system: Escherichia coli, 0205
From the text: as §1

[1] = test system: Klebsiella pheumoniae, ATCC 10031
From the text: as §1

Proteus mirabilis = test system: Proteus mirabilis
From the text: as §1

[2] = test system: Citrobacter freundii GN 346; details: GN346
From the text: as §1

[3] = test system: Enterobacter cloacae GN 336; details: GN336
From the text: as §1

Escherichia coli, NIHJ = test system: Escherichia coli, NIHJ
From the text: as §1

[4] = test system: Staphylococcus aureus, ATCC 6538 P
From the text: as §1

Proteus rettgeri, ACR = test system: Proteus rettgeri, ACR
From the text: as §1

[5] = test system: Salmonella enteritidis gaertner
From the text: as §1

[6] = test system: Staphylococcus aureus, ATCC MS 27
From the text: as §1

[7] = Morganella morganii, Proteus morganii 0239, read-out: MIC
[8] = ATCC10031, Klebsiella pheumoniae, ATCC 10031, read-out: MIC
[9] = Citrobacter freundii GN 346, read-out: MIC
[10] = Enterobacter cloacae GN 336, read-out: MIC
[11] = ATCC6538, ATCC 6538 P, read-out: MIC
[12] = Providencia rettgeri, Proteus rettgeri, ACR, read-out: MIC
[13] = Salmonella enterica, Salmonella enteritidis gaertner, read-out: MIC
[14] = ATCCMS27, ATCC MS 27, read-out: MIC

Structure (SMILES) | MIC (Proteus morganii 0239; [7]) [µg/mL] | MIC (Escherichia coli, 0205; read-out: MIC) [µg/mL] | MIC [1, 8] [µg/mL] | MIC (Proteus mirabilis; read-out: MIC) [µg/mL] | MIC [2, 9] [µg/mL] | MIC [3, 10] [µg/mL] | MIC (Escherichia coli, NIHJ; read-out: MIC) [µg/mL] | MIC [4, 11] [µg/mL] | MIC (Proteus rettgeri, ACR; [12]) [µg/mL] | MIC [5, 13] [µg/mL] | MIC [6, 14] [µg/mL] | MIC (Proteus mirabilis) [µg/mL] | MIC ([2]; Citrobacter freundii) [µg/mL] | MIC ([3]; Enterobacter cloacae) [µg/mL] | also measured
Cn1nnnc1SCC1=C(C(=O)O)N2C(=O)C(NC(=O)C[S+]([O-])c3cccs3)[C@H]2SC1 (stereo partly drawn) [A, 7-(2-Thienylsulfinylacetamido)-3-(1-methyl-1H-tetrazol-5-ylthiomethyl)-3-cephem-4-carboxylic acid] | > 100 | 25 (≈ 49.9 µM) | ≤ 0.2 | 0.8 (≈ 1.6 µM) | > 100 | 100 (≈ 200 µM) | 0.8 (≈ 1.6 µM) | ≤ 0.2 | 25 (≈ 49.9 µM) | ≤ 0.2 | 0.4 (≈ 0.799 µM) |  |  |  | 
Cc1nnc(SCC2=C(C(=O)O)N3C(=O)[C@@H](NC(=O)Cn4cnnn4)[C@H]3SC2)s1 [Cefazolin, 7-(1H-Tetrazol-1-ylacetamido)-3-(5-methyl-1,3,4-thiadiazol-2-ylthiomethyl)-3-cephem-4-carboxylic acid] | > 100 | 12.5 (≈ 27.5 µM) | 1.6 (≈ 3.52 µM) | 3.1 (≈ 6.82 µM) | > 100 | > 100 | 1.6 (≈ 3.52 µM) | ≤ 0.2 | > 100 | 1.6 (≈ 3.52 µM) | 0.8 (≈ 1.76 µM) |  |  |  | 
CC(=O)OCC1=C(C(=O)O)N2C(=O)[C@@H](NC(=O)Cc3cccs3)[C@H]2SC1 [Cephalothin, 7-(2-Thienylacetamido)-3-acetoxymethyl-3-cephem-4-carboxylic acid] |  | > 100 |  |  |  |  | 6.3 (≈ 15.9 µM) |  |  |  |  | 6.3 (≈ 15.9 µM) | > 100 | > 100 | MIC (Proteus morganii 0239; Morganella morganii, 0239): > 100 µg/mL; MIC ([1]; Klebsiella, ATCC10031): 0.8 µg/mL (≈ 2.02 µM); MIC ([4]; ATCC6538): ≤ 0.2 µg/mL; MIC (Proteus rettgeri, ACR; Providencia rettgeri): > 100 µg/mL; MIC ([5]; Salmonella enterica, ENTERITIDIS): 1.6 µg/mL (≈ 4.04 µM); MIC ([6]; ATCCMS27): 0.4 µg/mL (≈ 1.01 µM)
CO[C@@]1(NC(=O)C[S+]([O-])c2cccs2)C(=O)N2C(C(=O)O)=C(CSc3nnnn3C)CS[C@@H]21 (stereo partly drawn) [Example 21, 7β-(2-Thienylsulfinylacetamido)-7α-methoxy-3-(1-methyl-1H-tetrazol-5-ylthiomethyl)-3-cephem-4-carboxylic acid] |  |  |  |  |  |  |  |  |  |  |  | 0.8 (≈ 1.51 µM) | 100 (≈ 188 µM) | 25 (≈ 47.1 µM) | MIC (Proteus morganii 0239; Proteus morganii 0239): 12.5 µg/mL (≈ 23.6 µM); MIC (Escherichia coli, 0205): 3.1 µg/mL (≈ 5.84 µM); MIC ([1]; Klebsiella pheumoniae, ATCC 10031): ≤ 0.2 µg/mL; MIC (Escherichia coli, NIHJ): 1.6 µg/mL (≈ 3.02 µM); MIC ([4]; ATCC 6538 P): 0.8 µg/mL (≈ 1.51 µM); MIC (Proteus rettgeri, ACR; Proteus rettgeri, ACR): 6.3 µg/mL (≈ 11.9 µM); MIC ([5]; Salmonella enteritidis gaertner): ≤ 0.2 µg/mL; MIC ([6]; ATCC MS 27): 0.8 µg/mL (≈ 1.51 µM)
CO[C@@]1(NC(=O)C[S+]([O-])c2cccs2)C(=O)N2C(C(=O)[O-])=C(CSc3nnnn3C)CS[C@@H]21.[Na+] (stereo partly drawn) [Example 23, sodium 7β-(2-thienylsulfinylacetamido)-7α-methoxy-3-(1-methyl-1H-tetrazol-5-ylthiomethyl)-3-cephem-4-carboxylate] |  |  |  |  |  |  |  |  |  |  |  |  |  |  | MIC (Escherichia coli, 0205; text of Example 23 (sodium salt)): 3.1 µg/mL
